system: human dermal papilla cells; assay: Promotion of proliferation of human dermal papilla cells (CellTiter-Glo Luminescent cell viability assay); type: cell-based; conditions: human dermal papilla cells (ScienCell, 2499); drug 0 to 30 μM; 48 hours; CellTiter-Glo luminescence; compared to DMSO-treated control group
Description: The effect of promoting cell proliferation by the drug was analyzed using human dermal papilla cells (ScienCell, 2499). Human dermal papilla cells cultured using Mesenchymal Stem Cell Medium (ScienCell, 7501) medium were seeded at a density of 3×10^3 cells/well and in a volume of 100 μl in a 96-well plate, incubated overnight at 37° C. and 5% CO2, treated with the drug at different concentrations ranging from 0 to 30 μM in a volume of 100 μL, and incubated at 37° C. and 5% CO2 for 48 hours. CellTiter-Glo Luminescent cell viability assay was performed according to the manufacturer's protocol (Promega, G7573) to detect cell proliferation. Luminescence was measured using an Envision 2102 multilabeled reader (PerkinElmer) equipment, and the cell proliferation rate was analyzed by the activity of the drug-treated group compared to the DMSO-treated group (control group), which is a solvent of the drug.

Structure (SMILES)	Maximum DP cell proliferation (%)
Nc1nn(Cc2ccccc2)c2nc(Nc3cccc4c3CCC4)c(F)cc12 [Compound 93, 1-benzyl-N6-(2,3-dihydro-1H-inden-4-yl)-5-fluoro-1H-pyrazolo[3,4-b]pyridine-3,6-diamine]	2.8%
Cc1nc(Nc2cccc3c2CCC3)nc2[nH]nc(N)c12 [Compound 84, N6-(2,3-dihydro-1H-inden-4-yl)-4-methyl-1H-pyrazolo[3,4-d]pyrimidine-3,6-diamine]	7.4%
CNc1n[nH]c2nc(Nc3cccc4c3CCC4)c(F)cc12 [Compound 102, 5-fluoro-N6-indan-4-yl-N3-methyl-1H-pyrazolo[3,4-b]pyridine-3,6-diamine]	13%
Cc1c(Cl)c(Nc2cccc3c2CCC3)nc2[nH]nc(N)c12 [Compound 17, 5-chloro-N6-(2,3-dihydro-1H-inden-4-yl)-4-methyl-1H-pyrazolo[3,4-b]pyridine-3,6-diamine]	6%
Nc1n[nH]c2nc(Nc3ccc(Cl)c(C(F)F)c3)c(F)cc12 [Compound 75, N6-(4-chloro-3-(difluoromethyl)phenyl)-5-fluoro-1H-pyrazolo[3,4-b]pyridine-3,6-diamine]	3%
Cc1ccc(Cl)c(Nc2nc3[nH]nc(N)c3cc2F)c1F [Compound 76, N6-(6-chloro-2-fluoro-3-methylphenyl)-5-fluoro-1H-pyrazolo[3,4-b]pyridine-3,6-diamine]	4%
Nc1n[nH]c2nc(Nc3cc(C(F)(F)F)ccc3F)c(F)cc12 [Compound 68, 5-fluoro-N6-(2-fluoro-5-(trifluoromethyl)phenyl)-1H-pyrazolo[3,4-b]pyridine-3,6-diamine]	4.5%
Nc1n[nH]c2nc(Nc3c4c(cc5c3CCC5)CCC4)c(F)cc12 [Compound 29, 5-fluoro-N6-(1,2,3,5,6,7-hexahydro-s-indacen-4-yl)-1H-pyrazolo[3,4-b]pyridine-3,6-diamine]	4.6%
Nc1n[nH]c2nc(Nc3cccc4c3CCC4)cnc12 [Compound 15, N6-(2,3-dihydro-1H-inden-4-yl)-1H-pyrazolo[3,4-b]pyrazine-3,6-diamine]	24%
Nc1n[nH]c2nc(Nc3cccc(C(F)(F)F)c3F)c(F)cc12 [Compound 64, 5-fluoro-N6-(2-fluoro-3-(trifluoromethyl)phenyl)-1H-pyrazolo[3,4-b]pyridine-3,6-diamine]	16%
CC1(C)CCc2c(Nc3nc4[nH]nc(N)c4cc3F)cccc21 [Compound 51, N6-(1,1-dimethyl-2,3-dihydro-1H-inden-4-yl)-5-fluoro-1H-pyrazolo[3,4-b]pyridine-3,6-diamine]	8.7%
Nc1n[nH]c2nc(Nc3cccc(F)c3C(F)(F)F)c(F)cc12 [Compound 62, 5-fluoro-N6-(3-fluoro-2-(trifluoromethyl)phenyl)-1H-pyrazolo[3,4-b]pyridine-3,6-diamine]	6.2%
Nc1n[nH]c2nc(Nc3cccc4c3CC(=O)N4)c(F)cc12 [Compound 54, 4-((3-amino-5-fluoro-1H-pyrazolo[3,4-b]pyridin-6-yl)amino)indolin-2-one]	4.4%
Cc1cc2c(c(Nc3nc4[nH]nc(N)c4cc3F)c1)CCC2 [Compound 27, 5-fluoro-N6-(6-methyl-2,3-dihydro-1H-inden-4-yl)-1H-pyrazolo[3,4-b]pyridine-3,6-diamine]	6.8%
CC(C)(C)c1cccc(Nc2nc3[nH]nc(N)c3cc2F)c1 [Compound 5, N6-(3-(tert-butyl)phenyl)-5-fluoro-1H-pyrazolo[3,4-b]pyridine-3,6-diamine]	7.4%
Cn1ccc2c(Nc3nc4[nH]nc(N)c4cc3F)cccc21 [Compound 6, 5-fluoro-N6-(1-methyl-1H-indol-4-yl)-1H-pyrazolo[3,4-b]pyridine-3,6-diamine]	7%
